Where “and” joins values, the source holds several entries; their conditions need not be identical. Equal entries are not always repeated.
How the values were obtained:
[1] = target: Grp94 (recombinant cGrp94) (Canis lupus familiaris (Dog) (Canis familiaris), UniProt P41148); assay: Fluorescence polarization (FP) assay, cGrp94 with FITC-GDA; assay type: binding; conditions: apparent Kd, cGrp94 and FITC-GDA, triplicates, ± SEM, read-out: Kd Grp94
Description: (§1) Fluorescence Polarization. Assay buffer (25 μL, 20 mM HEPES pH 7.3, 50 mM KCl, 5 mM MgCl2, 1 mM DTT, 20 mM Na2MoO4, 0.01% NP-40, and 0.5 mg/mL BGG) was added to 96-well plate (black well, black bottom) followed by the desired compound at the indicated final concentrations in DMSO (1% DMSO final concentration). […] Plates were incubated with rocking for 5 h at 4° C. […] Percent FITC-GDA bound was determined by using the DMSO millipolarization unit (mP) as the 100% bound value and the 0% for FITC-GDA. Kd values were calculated from separate experiments performed in triplicate using GraphPad Prism.

Hsp90α = Hsp90α (Homo sapiens (Human), UniProt P07900); assay: Fluorescence polarization (FP) assay, Hsp90α; assay type: binding
Description: as §1

Chain of Grp94 (recombinant cGrp94) (P41148 22-804): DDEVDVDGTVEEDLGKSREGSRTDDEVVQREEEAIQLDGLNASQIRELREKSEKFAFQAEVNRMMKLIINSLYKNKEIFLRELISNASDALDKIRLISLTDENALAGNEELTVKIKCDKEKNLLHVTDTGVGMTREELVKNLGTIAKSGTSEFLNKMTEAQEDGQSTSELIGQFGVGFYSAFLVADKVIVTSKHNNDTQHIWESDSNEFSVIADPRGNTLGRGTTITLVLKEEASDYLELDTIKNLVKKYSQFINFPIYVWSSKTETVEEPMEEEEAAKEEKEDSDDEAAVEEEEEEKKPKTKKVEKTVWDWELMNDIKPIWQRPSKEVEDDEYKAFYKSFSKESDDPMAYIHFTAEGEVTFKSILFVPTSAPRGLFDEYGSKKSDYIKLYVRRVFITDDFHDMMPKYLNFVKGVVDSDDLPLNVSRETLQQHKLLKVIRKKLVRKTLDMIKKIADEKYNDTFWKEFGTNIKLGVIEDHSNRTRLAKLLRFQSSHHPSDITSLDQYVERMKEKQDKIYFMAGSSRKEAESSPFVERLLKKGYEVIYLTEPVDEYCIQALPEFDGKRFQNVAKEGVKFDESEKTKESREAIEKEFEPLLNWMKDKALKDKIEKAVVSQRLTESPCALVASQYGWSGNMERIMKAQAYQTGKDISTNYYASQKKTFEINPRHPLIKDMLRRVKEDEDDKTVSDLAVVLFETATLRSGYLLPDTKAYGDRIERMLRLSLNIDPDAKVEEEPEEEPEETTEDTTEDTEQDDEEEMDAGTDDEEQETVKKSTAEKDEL

Kd [1]	Kd (Hsp90α)	Compound
~9 µM and 9.05 µM	> 100 µM	NC(=O)c1ccc(-n2cccc2-c2ccccc2)cc1N[C@H]1CC[C@H](O)CC1 [Compound 5a, 2-(((1r,4r)-4-hydroxycyclohexyl)amino)-4-(2-phenyl-1H-pyrrol-1-yl)benzamide]
9.9 ± 0.54 µM	> 100 µM	Cc1ccccc1-c1cccn1-c1ccc(C(N)=O)c(N[C@H]2CC[C@H](O)CC2)c1 [Compound 5b, 2-(((1r,4r)-4-hydroxycyclohexyl)amino)-4-(2-(o-tolyl)-1H-pyrrol-1-yl)benzamide]
9.43 ± 0.26 µM	> 100 µM	Cc1cccc(-c2cccn2-c2ccc(C(N)=O)c(N[C@H]3CC[C@H](O)CC3)c2)c1 [Compound 5c, 2-(((1r,4r)-4-hydroxycyclohexyl)amino)-4-(2-(m-tolyl)-1H-pyrrol-1-yl)benzamide]
8.35 ± 0.14 µM	> 100 µM	Cc1ccc(-c2cccn2-c2ccc(C(N)=O)c(N[C@H]3CC[C@H](O)CC3)c2)cc1 [Compound 5d, 2-(((1r,4r)-4-hydroxycyclohexyl)amino)-4-(2-(p-tolyl)-1H-pyrrol-1-yl)benzamide]
	> 100 µM	NC(=O)c1ccc(-n2cccc2-c2ccccc2Cl)cc1N[C@H]1CC[C@H](O)CC1 [Compound 5e, 4-(2-(2-chlorophenyl)-1H-pyrrol-1-yl)-2-(((1r,4r)-4-hydroxycyclohexyl)amino)benzamide]
	> 100 µM	NC(=O)c1ccc(-n2cccc2-c2cccc(Cl)c2)cc1N[C@H]1CC[C@H](O)CC1 [Compound 5f, 4-(2-(3-chlorophenyl)-1H-pyrrol-1-yl)-2-(((1r,4r)-4-hydroxycyclohexyl)amino)benzamide]
10.6 ± 0.54 µM	> 100 µM	NC(=O)c1ccc(-n2cccc2-c2ccc(Cl)cc2)cc1N[C@H]1CC[C@H](O)CC1 [Compound 5g, 4-(2-(4-chlorophenyl)-1H-pyrrol-1-yl)-2-(((1r,4r)-4-hydroxycyclohexyl)amino)benzamide]
14 ± 0.27 µM	> 100 µM	NC(=O)c1ccc(-n2cccc2-c2ccccn2)cc1N[C@H]1CC[C@H](O)CC1 [Compound 5h, 2-(((1r,4r)-4-hydroxycyclohexyl)amino)-4-(2-(pyridin-2-yl)-1H-pyrrol-1-yl)benzamide]
5.5 ± 0.15 µM	> 100 µM	NC(=O)c1ccc(-n2cccc2-c2cccnc2)cc1N[C@H]1CC[C@H](O)CC1 [Compound 5i, 2-(((1r,4r)-4-hydroxycyclohexyl)amino)-4-(2-(pyridin-3-yl)-1H-pyrrol-1-yl)benzamide]
13.2 ± 0.12 µM	> 100 µM	NC(=O)c1ccc(-n2cccc2-c2ccncc2)cc1N[C@H]1CC[C@H](O)CC1 [Compound 5j, 2-(((1r,4r)-4-hydroxycyclohexyl)amino)-4-(2-(pyridin-4-yl)-1H-pyrrol-1-yl)benzamide]
~1.3 µM and 1.13 µM	> 100 µM	NC(=O)c1ccc(-n2cccc2Cc2ccccc2)cc1N[C@H]1CC[C@H](O)CC1 [Compound 8a, 4-(2-benzyl-1H-pyrrol-1-yl)-2-(((1r,4r)-4-hydroxycyclohexyl)amino)benzamide]
0.83 ± 0.12 µM	> 100 µM	NC(=O)c1ccc(-n2cccc2Cc2ccccc2Cl)cc1N[C@H]1CC[C@H](O)CC1 [Compound 8b, 4-(2-(2-chlorobenzyl)-1H-pyrrol-1-yl)-2-(((1r,4r)-4-hydroxycyclohexyl)amino)benzamide]
2.45 ± 0.45 µM	> 100 µM	NC(=O)c1ccc(-n2cccc2Cc2cccc(Cl)c2)cc1N[C@H]1CC[C@H](O)CC1 [Compound 8c]
> 25 µM	> 100 µM	NC(=O)c1ccc(-n2cccc2Cc2ccc(Cl)cc2)cc1N[C@H]1CC[C@H](O)CC1 [Compound 8d, 4-(2-(4-chlorobenzyl)-1H-pyrrol-1-yl)-2-(((1r,4r)-4-hydroxycyclohexyl)amino)benzamide]
	> 100 µM	NC(=O)c1ccc(-n2cccc2Cc2ccc(O)cc2)cc1N[C@H]1CC[C@H](O)CC1 [Compound 8l, 4-(2-(4-hydroxybenzyl)-1H-pyrrol-1-yl)-2-(((1r,4r)-4-hydroxycyclohexyl)amino)benzamide]

— patent publication US10975030B2, “Grp94 selective inhibitors and uses thereof” (University of Kansas, priority 2016, dated 2021)
